From ChEMBL document CHEMBL5725270, “Substituted imidazopyridazines” (2016)

experiment: Time-Resolved Fluorescence Resonance Energy Transfer (TR-FRET) Assay: The human kinase Mps-1 phosphorylates a biotinylated substrate peptide. Detection of the phosphorylated product is achieved by time-resolved fluorescence resonance energy transfer (TR-FRET) from Europium-labelled anti-phospho-Serine/Threonine antibody as donor to streptavidin labelled with cross-linked allophycocyanin (SA-XLent) as acceptor. Compounds are tested for their inhibition of the kinase activity.N-terminally GST-tagged human full length recombinant Mps-1 kinase (purchased from Invitrogen, Karslruhe, Germany, cat. no PV4071) was used. […] The concentration of Mps-1 in the assay was adjusted to the activity of the enzyme lot and was chosen appropriate to have the assay in the linear range, typical enzyme concentrations were in the range of about 1 nM (final conc. in the 5 ul assay volume).

| IC50 [pM] | Compound |
| --- | --- |
| 300 | Cc1cc(-c2cnc3c(NCCC(F)(F)F)cc(C(C)(O)c4cccc(F)c4O)nn23)ccc1C(=O)NC1CC1 (configuration not stated) |
| 800 | Cc1cc(-c2cnc3c(NCCC(F)(F)F)cc(C4(c5cc(F)ccc5F)CC4)nn23)ccc1C(=O)NC1CC1 |
| 300 | C=C(c1cccc(F)c1)c1cc(NCCC(F)(F)F)c2ncc(-c3ccc(C(=O)NC4CC4)c(C)c3)n2n1 |
| 600 | Cc1cc(-c2cnc3c(NCCC(F)(F)F)cc(C(=O)c4cccc(F)c4F)nn23)ccc1C(=O)NC1CC1 |
| 500 | C=C(c1ccc(OC)cc1)c1cc(NCCC(F)(F)F)c2ncc(-c3ccc(C(=O)NC4CC4)c(C)c3)n2n1 |
| 1200 | COc1ccc(C(=O)c2cc(NCCC(F)(F)F)c3ncc(-c4ccc(C(=O)NC5CC5)c(C)c4)n3n2)cc1 |
| 600 | Cc1cc(-c2cnc3c(NCCC(F)(F)F)cc(C(=O)c4cc(F)ccc4F)nn23)ccc1C(=O)NC1CC1 |
| 900 | Cc1cc(-c2cnc3c(NCCC(F)(F)F)cc(C4(c5cccc(F)c5)CC4)nn23)ccc1C(=O)NC1CC1 |
| 400 | C=C(c1cc(NCCC(F)(F)F)c2ncc(-c3ccc(C(=O)NC4CC4)c(C)c3)n2n1)c1cc(F)ccc1O |
| 400 | C=C(c1cc(NCCC(F)(F)F)c2ncc(-c3ccc(C(=O)NC4CC4)c(C)c3)n2n1)c1cccc(F)c1F |
| 700 | Cc1cc(-c2cnc3c(NCCC(F)(F)F)cc(C(F)c4cccc(F)c4)nn23)ccc1C(=O)NC1CC1 (configuration not stated) |
| 300 | Cc1cc(-c2cnc3c(NCCC(F)(F)F)cc(C(O)c4cc(F)ccc4F)nn23)ccc1C(=O)NC1CC1 (configuration not stated) |
| 500 | COc1cccc(C(=O)c2cc(NCCC(F)(F)F)c3ncc(-c4ccc(C(=O)NC5CC5)c(C)c4)n3n2)c1 |
| 1500 | Cc1cc(-c2cnc3c(NCCC(F)(F)F)cc(C(F)(F)c4cccc(F)c4F)nn23)ccc1C(=O)NC1CC1 |
| 600 | C=C(c1cc(NCCC(F)(F)F)c2ncc(-c3ccc(C(=O)NC4CC4)c(C)c3)n2n1)c1cc(F)ccc1F |
| 800 | C=C(c1cccc(OC)c1)c1cc(NCCC(F)(F)F)c2ncc(-c3ccc(C(=O)NC4CC4)c(C)c3)n2n1 |
| 500 | Cc1cc(-c2cnc3c(NCCC(F)(F)F)cc(C(F)(F)c4cc(F)ccc4F)nn23)ccc1C(=O)NC1CC1 |
